Results taken from BindingDB's records for doi:10.1021/acs.jmedchem.5b00964 (Peking Union Medical College, 2015).

What follows are molecules tested against T1, X-box-binding protein 1 (Homo sapiens, UniProt P17861) (assay: Transactivation of XBP1 (unknown origin) transfected in rat IEC-6 cells after 48 hrs by dual luciferase reporter gene assay).
T1 sequence (P17861 whole entry): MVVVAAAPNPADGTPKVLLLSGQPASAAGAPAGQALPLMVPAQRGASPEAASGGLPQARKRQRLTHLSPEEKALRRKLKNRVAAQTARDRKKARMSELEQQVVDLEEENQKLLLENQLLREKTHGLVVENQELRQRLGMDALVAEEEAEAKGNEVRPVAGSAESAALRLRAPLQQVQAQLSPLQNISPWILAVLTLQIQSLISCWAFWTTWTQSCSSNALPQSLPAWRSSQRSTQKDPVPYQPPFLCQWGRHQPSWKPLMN
With `C1=C2c3cc4c(cc3CCN2Cc2c1ccc1c2OCO1)OCO4` the EC50 was 2.3 nM. For `CC(=O)CC1c2c(ccc3c2OCO3)C=C2c3cc4c(cc3CCN21)OCO4` (stereo not drawn), the EC50 was 220 nM. Molecule `C=C(C(C)=O)c1c2c3c(ccc2c(C)c2[n+]1CCc1cc4c(cc1-2)OCO4)OCO3` has an EC50 of 210 nM.
